Source: patent US20110262954A1, “SHUTTLE VECTOR BASED TRANSFORMATION SYSTEM FOR PYROCOCCUS FURIOSUS” (UNIVERSITAT REGENSBURG, priority 2010, published 2011)

Assay: stability of simvastatin at incubation temperature (inferred from growth inhibition)
Conditions: 95° C. compared with 85° C.

In the case of CCC(C)(C)C(=O)O[C@H]1C[C@@H](C)C=C2C=C[C@H](C)[C@H](CC[C@@H]3C[C@@H](O)CC(=O)O3)[C@H]21 [simvastatin], the stability of simvastatin is reported as “dramatically decreased”.
